According to ChEMBL document CHEMBL1800006, “Azaphilones and p-terphenyls from the mangrove endophytic fungus Penicillium chermesinum (ZH4-E2) isolated from the South China Sea” (J Nat Prod, 2011):

What was measured:
[1] = Inhibition of alpha glucosidase by UV-[…] spectroscopy
[2] = target: Acetylcholinesterase (Electrophorus electricus, UniProt O42275); assay: Inhibition of electric eel AChE using acetylthiocholine chloride as substrate after 15 mins by Ellman's method
Chain of Acetylcholinesterase (O42275 whole entry): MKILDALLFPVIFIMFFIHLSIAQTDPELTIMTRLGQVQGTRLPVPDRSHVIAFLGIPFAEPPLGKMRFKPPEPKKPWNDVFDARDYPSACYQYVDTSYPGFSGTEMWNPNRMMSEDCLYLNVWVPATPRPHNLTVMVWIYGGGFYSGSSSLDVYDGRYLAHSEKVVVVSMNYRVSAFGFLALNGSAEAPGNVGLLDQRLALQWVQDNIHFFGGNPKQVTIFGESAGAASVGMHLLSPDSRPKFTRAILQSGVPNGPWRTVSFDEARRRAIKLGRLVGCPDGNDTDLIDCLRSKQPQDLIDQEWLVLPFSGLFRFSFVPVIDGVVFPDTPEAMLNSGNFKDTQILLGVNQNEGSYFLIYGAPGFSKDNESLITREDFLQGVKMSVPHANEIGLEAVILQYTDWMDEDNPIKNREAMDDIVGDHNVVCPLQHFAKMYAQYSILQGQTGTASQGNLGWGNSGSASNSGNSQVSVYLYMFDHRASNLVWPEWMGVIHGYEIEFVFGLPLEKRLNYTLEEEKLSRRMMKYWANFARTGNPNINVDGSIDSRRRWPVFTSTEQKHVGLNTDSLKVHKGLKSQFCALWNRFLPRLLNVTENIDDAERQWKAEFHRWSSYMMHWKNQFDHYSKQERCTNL

| SMILES | IC50 [1] | IC50 [2] |
| --- | --- | --- |
| CC[C@H](C)C(=O)[C@H]1C(=O)O[C@@]2(C)C(=O)C=C3C=C(C)O[C@H](O)[C@H]3[C@H]12 [CHERMESINONE C] | > 100 µM | > 100 µM |
| COc1c(-c2ccc(O)c(O)c2)cc(O)c2c1oc1cc(O)c(O)cc12 [6'-DESMETHYLCANDIDUSIN B] | > 100 µM | 5.2 µM |
| COc1c(-c2ccc(O)c(O)c2)cc(O)c(-c2ccc(O)c(O)c2)c1O | 2.9 µM | > 100 µM |
| CC[C@H](C)C(=O)[C@H]1C(=O)O[C@@]2(C)C(=O)C=C3C=C(C)OC=C3[C@H]12 [CHERMESINONE B] | > 100 µM | > 100 µM |
| CC[C@H](C)C(=O)C[C@H]1C2=COC(C)=CC2=CC(=O)[C@]1(C)O [CHERMESINONE A] | 24.5 µM | > 100 µM |
| O=c1c(-c2ccc(O)cc2)coc2cc(O)cc(O)c12 [GENISTEIN] | 9.8 µM |  |
| COc1c(-c2ccc(O)cc2)cc(O)c(-c2ccc(O)c(O)c2)c1O | 4.9 µM | > 100 µM |
| COc1c(-c2ccc(O)cc2)cc(O)c2c1oc1cc(O)c(O)cc12 | > 100 µM | 7.8 µM |
| COc1c(-c2ccc(O)cc2)cc(O)c(-c2ccc(O)cc2)c1O | 0.9 µM | > 100 µM |
